# Patent publication US6458823B1, “Diaminopyrazoles” (Wyeth, priority 1998, dated 2002)
# Structures can show the parent of a compound that is named as a salt.
# Tests used:
# [1] = test system: hypertrophied bladder (detrusor) smooth muscle; assay: Inhibition of spontaneous contractions in vivo, hypertrophied rat bladder model (cystometry); design: species or system Female Sprague-Dawley rats; conditions: 10 mg/kg p.o., cystometry one hour after dosing
# Procedure: In addition, we tested the ability of compounds to inhibit the hyperactivity of hypertrophied bladder (detrusor) smooth muscle in conscious female rats with hypertrophied bladders and thereby alleviate urinary incontinence in rats according to the following protocol described by Malmgren et al. (J. Urol. 1989, 142, 1134.):
# Female Sprague-Dawley rats, ranging in weight from 190-210 g are used. Up to 25 animals are prepared each time. After development of bladder hypertrophy 4-8 animals are used per test.
# Compounds are dissolved in PEG-200 and administered by gastric gavage or intravenously in a volume of 5 mL/kg. For primary screening all drugs are administered at the arbitrary dose of 10 mg/kg p.o. to groups of 4 rats.
# The animals are anesthetized with halothane. Through a midline incision the bladder and urethra are exposed and a ligature of 4-0 silk is tied around the proximal urethra in the presence of a stainless steel rod (1 mm diameter) to produce a partial occlusion. […] The following urodynamic variables are recorded: […]
# The mean value of each variable is calculated before and after compound administration. For each compound the changes in the variables measured are compared to the values obtained before treatment and expressed as percent inhibition. The data are also subjected to 2-way analysis of variance to determine significant (p<0.05) changes in the variable measured. […]
# [2] = test system: Isolated Rat Bladder Strips; assay: Inhibition of contractions in isolated rat bladder strips (KCl-enhanced contractile activity); design: species or system Sprague-Dawley rats; conditions: 0.5 h, 15 mM KCl added, contractile activity measured in last minute of 30 minute challenge
# Procedure: Sprague-Dawley rats (150-200 g) are rendered unconscious by CO2 asphyxiation and then euthanized by cervical dislocation. The bladder is removed into warm (37° C.) physiological salt solution (PSS) of the following composition (mM): NaCl, 118.4; KCI, 4.7; CaCl2, 2.5; MgSO4, […]; NaHCO3, 24.9; KH2PO4, 1.2; glucose, 11.1; EDTA, 0.023; gassed with […]; pH 7.4. The bladder is opened and then cut into strips 1-2 mm in width and 7-10 nmm in length. The strips are subsequently suspended in a 10 mL tissue bath under an initial resting tension of 1.5 g. The strips are held in place by two surgical clips one of which is attached to a fixed hook while the other is attached to an isometric force transducer. […] The carbachol is then washed out and the tissue allowed to relax to its resting level of activity. Following a further 30 min period of recovery an additional 15 mM KCl are introduced into the tissue bath. This increase in KCl concentration results in a large increase in the amplitude of spontaneous contractions (and initiation of contractions in previously quiescent strips) superimposed upon a small increase in basal tone. Following stabilization of this enhanced level of contractile activity, incremental increases in the concentration of test compound or vehicle are introduced into the tissue bath. Contractile activity is measured for each compound or vehicle concentration during the last minute of a 30 minute challenge.
# The isometric force developed by the bladder strips is measured using a […] to elicit 50% inhibition of pre-drug contractile activity (IC50 concentration) and is calculated from this concentration-response curve.
Structure (SMILES),% Red (F): percent reduction in the total number of spontaneous contractions [1] [%],IC50 [2] [µM],melting point [°C]
"Cc1nn(C)c(NCC(C)(C)C)c1NCc1ccncc1 [Example 1, N(3)-(2,2-Dimethyl-propyl)-2,5-dimethyl-N(4)-pyridin-4-ylmethyl-2H-pyrazole-3,4-diamine]",−36 ± 7,4.9,88 to 90
"CCC(C)(C)CNc1c(NCc2ccncc2)c(C)nn1C [Example 9, N(3)-(2,2-Dimethyl-butyl)-2,5-dimethyl-N(4)-pyridin-4-ylmethyl-2H-pyrazole-3,4-diamine]",–,19.2,–
"Cc1nn(C)c(NCC(C)(C)C)c1NCc1ccc(C#N)cc1 [Example 2, 4-{[5-(2,2-Dimethyl-propylamino)-1,3-dimethyl-1H-pyrazol-4-ylamino]-methyl}-benzonitrile]",–,8.26,–
"Cc1cc(C)c(CNc2c(C)nn(C)c2NCC(C)(C)C)c(C)c1 [Example 8, N(3)-(2,2-Dimethyl-propyl)-2,5-dimethyl-N(4)-(2,4,6-trimethyl-benzyl)-2H-pyrazole-3,4-diamine]",–,17.8,114 to 120
"Cc1nn(C)c(NCC(C)(C)C)c1NCc1ccc(F)cc1 [Example 3, N(3)-(2,2-Dimethyl-propyl)-N(4)-(4-fluoro-benzyl)-2,5-dimethyl-2H-pyrazole-3,4-diamine]",–,11.5,32 to 39
"CCC(C)(C)CNc1c(NCc2ccccc2)c(C)nn1C [Example 10, N(4)-Benzyl-N(3)-(2,2-dimethyl-butyl)-2,5-dimethyl-2H-pyrazole-3,4-diamine]",–,19.9,–
"Cc1nn(C)c(NCC(C)(C)C)c1NCc1ccc(Cl)cc1Cl [Example 4, N(4)-(2,4-Dichloro-benzyl)-N(3)-(2,2-dimethyl-propyl)-2,5-dimethyl-2H-pyrazole-3,4-diamine]",–,11.8,–
"Cc1nn(C)c(NCC(C)(C)C)c1Nc1ccccc1 [Example 11, N(3)-(2,2-Dimethyl-propyl)-2,5-dimethyl-N(4)-phenyl-2H-pyrazole-3,4-diamine]",–,4.3,–
"Cc1nn(C)c(NCC(C)(C)C)c1NCc1ccc(F)cc1F [Example 6, N(4)-(2,4-Difluoro-benzyl)-N(3)-(2,2-dimethyl-propyl)-2,5-dimethyl-2H-pyrazole-3,4-diamine]",–,13.5,–
"Cc1nn(C)c(NCC(C)(C)C)c1NCc1ccc(C#N)cc1 (as salt: tosylate) [Example 2, 4-{[5-(2,2-Dimethyl-propylamino)-1,3-dimethyl-1H-pyrazol-4-ylamino]-methyl}-benzonitrile]",–,–,102 to 104
"Cc1cc(Cl)ccc1Nc1c(C)nn(C)c1NCC(C)(C)C [Example 12, N(4)-(4-Chloro-2-methyl-phenyl)-N(3)-(2,2-dimethyl-propyl)-2,5-dimethyl-2H-pyrazole-3,4-diamine]",–,12.5,–
"Cc1nn(C)c(NCC(C)(C)C)c1NCc1cccnc1 [Example 7, N(3)-(2,2-Dimethyl-propyl)-2,5-dimethyl-N(4)-pyridin-3-ylmethyl-2H-pyrazole-3,4-diamine]",–,15.4,–
"CCC(C)(C)CNc1c(NCc2ccc(C#N)cc2)c(C)nn1C [Example 5, 4-{[5-(2,2-Dimethyl-butylamino)-1,3-dimethyl-1H-pyrazol-4-ylamino]-methyl}-benzonitrile]",–,12.6,–
"Cc1nn(C)c(NCC(C)(C)C)c1Nc1ccc(Cl)cc1 [Example 14, N(4)-(4-Chloro-phenyl)-N(3)-(2,2-dimethyl-propyl)-2,5-dimethyl-2H-pyrazole-3,4-diamine]",–,22.9,–
"Cc1nn(C)c(NCC(C)(C)C)c1Nc1ccc(C#N)cc1 [Example 13, 4-[5-(2,2-Dimethyl-propylamino)-1,3-dimethyl-1H-pyrazol-4-ylamino]-benzonitrile]",–,17.9,131 to 134
